Measurements as given in US6552038B1, “Anticoagulant agents” (Eli Lilly and Company, priority 1996, dated 2003).
Counter-ions that a name gives are not always drawn.

Columns and labels:
[1] = system: human or animal plasma; experiment: Anticoagulation determination: thrombin time (TT) in plasma; conditions: compound added to plasma; linear extrapolation to doubling of thrombin time
Description: Dog plasma and rat plasma are obtained from conscious mixed-breed hounds (either sex, hazelton-LRE, Kalamazoo, Mich., U.S.A.) or from anesthetized male Sprague-Dawley rats (Harlan Sprague-Dawley, Inc., Indianapolis, Ind., U.S.A.) by venipuncture into 3.8 percent citrate. Fibrinogen is prepared from in-date ACD human blood as the fraction I-2 according to previous procedures and specifications. Smith, Biochem. J., 185, 1-11 (1980); and Smith, et al., Biochemistry, 11, 2958-2967 (1972). Human fibrinogen is also purchased as 98 percent pure/plasmin free from American Diagnostica, Greenwich, Conn. Coagulation reagents ACTIN, Thromboplastin, and Human plasma are from Baxter Healthcare Corp., Dade Division, Miami, Fla. Bovine thrombin from Parke-Davis (Detroit, Mich.) is used for coagulation assays in plasma.
Coagulation assay procedures are as previously described. Smith, et al., Thrombosis Research, 50, 163-174 (1988). A CoAScreener coagulation instrument (American LABor, Inc.) is used for all coagulation assay measurements. The thrombin time (TT) is measured by adding 0.05 ml saline and 0.05 ml thrombin (10 NIH units/ml) to 0.05 ml test plasma. The activated partial thromboplastin time (APTT) is measured by incubation of 0.05 ml test plasma with 0.05 ml Actin reagent for 120 seconds followed by 0.05 ml CaCl2 (0.02 M). The prothrombin time (PT) is measured by adding 0.05 ml saline and 0.05 ml Thromboplastin-C reagent to 0.05 ml test plasma. The compounds of formula I are added to human or animal plasma over a wide range of concentrations to determine prolongation effects on the TT, APTT and PT assays. Linear extrapolations are performed to estimate the concentrations required to double the clotting time for each assay. Each of the particularly preferred examples of the invention listed above was determined to have a TT value of less than 50 ng/mL. For example, the respective values (in ng/mL) for TT were 6, 6 and 23 for the compounds of Examples 1, 3 and 5.

[2] = target: human thrombin (Homo sapiens, UniProt P00734); experiment: Inhibition of the amidase activity of thrombin (chromogenic substrate), Kass; format: biochemical; conditions: purified human thrombin, N-benzoyl-L-Phe-L-Val-L-Arg-p-nitroanilide, pH 7.4; mean value
Description: The assay is carried out by mixing 50 μl buffer (0.03M Tris, 0.15M NaCl, pH 7.4) with 25 μl of human thrombin solution (purified human thrombin, Enzyme Research Laboratories, South Bend, Ind., at 8 NIH units/ml) and 25 μl of test compound in a solvent (50% aqueous methanol (v:v)). Then 150 μl of an aqueous solution of the chromogenic substate (at 0.25 mg/ml) are added and the rates of hydrolysis of the substrate are measured by monitoring the reactions at 405 nm for the release of p-nitroaniline. Standard curves are constructed by plotting free thrombin concentration against hydrolysis rate. The hydrolysis rates observed with test compounds are then converted to “free thrombin” values in the respective assays by use of the standard curves. The bound thrombin (bound to test compound) is calculated by subtracting the amount of free thrombin observed in each assay from the known initial amount of thrombin used in the assay. The amount of free inhibitor in each assay is calculated by subtracting the number of moles of bound thrombin from the number of moles of added inhibitor (test compound). […]
Kass is calculated for a range of concentrations of test compounds and the mean value reported in units of liter per mole. […] For example, each of the particularly preferred examples of the invention listed above was determined to have a Kass of at least 100×10^6 L/mole.

[3] = Octanol/water distribution coefficient logD at pH 7.4; format: physicochemical

| Structure (SMILES) | TT value (concentration required to double the clotting time, thrombin time) [1] [ng/mL] | Kass (hypothetical equilibrium constant for the reaction between thrombin and the test compound) [2] | logD(7.4) [3] |
| --- | --- | --- | --- |
| N=C(N)c1ccc(CNC(=O)[C@@H]2CCCN2C(=O)[C@H](N)CC2CCCCC2)cc1O [Example 1, D-cyclohexylalanyl-N-[[4-(aminoiminomethyl)-3-hydroxyphenyl]methyl]-L-prolinamide dihydrochloride] | 6 | – | – |
| Cl.N=C(N)c1ccc(CNC(=O)[C@@H]2CCCN2C(=O)[C@@H](CC2CCCCC2)NCC(=O)O)cc1O [Example 3, N-carboxymethyl-D-cyclohexylalanyl-N-[[4-(aminoiminomethyl)-3-hydroxyphenyl]methyl]-L-prolinamide hydrochloride] | 6 | 1,200×10^6 L/mole | 0.55 |
| CCS(=O)(=O)N[C@H](CC1CCCCC1)C(=O)N1CCC[C@H]1C(=O)NCc1ccc(C(=N)N)c(O)c1 [Example 5, N-ethylsulfonyl-D-cyclohexylalanyl-N-[[4-(aminoiminomethyl)-3-hydroxyphenyl]methyl]-L-prolinamide hydrochloride] | 23 | – | – |
